Measured values: the supplement of paper PMC10307832

How the values were obtained:
Assay in all cases: relative viability (nuclei count vs DMSO), 5 days (fraction); higher = more cells survive
[1] = system: NCI-H1623
Method in brief: (§1)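 Values are medians from duplicate plates. Each reflects relative viability, defined as the nuclei count of treated wells over that of vehicle wells. Lung cancer cell lines in 1536-well plates were pin-tool dosed one day after seeding with one drug alone or with a fixed anchor-drug dose plus five library-drug doses (not always all listed) in √10 steps, then fixed, stained and imaged at 4× after 5 days.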

[2] = system: NCI-H522
Method in brief: as §1

[3] = system: NCI-H2342
Method in brief: as §1

[4] = system: NCI-H1563
Method in brief: as §1

[5] = system: SW 900
Method in brief: as §1

[6] = system: A549
Method in brief: as §1

Row | Compound | relative viability ([1]; first compound 0.253 µM) | relative viability ([1]; first compound 0.8 µM) | relative viability ([1]; first compound 2.53 µM) | relative viability ([1]; first compound 8 µM) | relative viability ([2]; first compound 0.08 µM) | relative viability ([2]; first compound 0.253 µM) | relative viability ([2]; first compound 0.8 µM) | relative viability ([2]; first compound 2.53 µM) | relative viability ([2]; first compound 8 µM) | relative viability ([3]; first compound 0.08 µM) | relative viability ([3]; first compound 0.253 µM) | relative viability ([3]; first compound 0.8 µM) | relative viability ([3]; first compound 2.53 µM) | relative viability ([3]; first compound 8 µM) | relative viability ([4]; first compound 0.08 µM) | relative viability ([4]; first compound 0.253 µM) | relative viability ([4]; first compound 0.8 µM) | relative viability ([4]; first compound 2.53 µM) | relative viability ([4]; first compound 8 µM) | relative viability ([5]; first compound 0.08 µM) | relative viability ([5]; first compound 0.253 µM) | relative viability ([5]; first compound 0.8 µM) | relative viability ([5]; first compound 2.53 µM) | relative viability ([5]; first compound 8 µM) | relative viability ([6]; first compound 0.08 µM) | relative viability ([6]; first compound 0.253 µM) | relative viability ([6]; first compound 0.8 µM) | relative viability ([6]; first compound 2.53 µM) | relative viability ([6]; first compound 8 µM)
1 | O=c1[nH]c2ccccc2n1C1CCN(CCCC(c2ccc(F)cc2)c2ccc(F)cc2)CC1 [Pimozide] + Cc1nc(Nc2ncc(C(=O)Nc3c(C)cccc3Cl)s2)cc(N2CCN(CCO)CC2)n1 [Dasatinib] (partner 0.075 µM) | 0.597 | 0.536 | 0.52 | 0.56 | 0.856 | 0.883 | 0.81 | 0.924 | 0.86 | 0.33 | 0.337 | 0.339 | 0.299 | 0.323 | 0.474 | 0.429 | 0.484 | 0.426 | 0.459 | 0.51 | 0.816 | 0.37 | 0.551 | 0.567 | – | – | – | – | –
2 | O=c1[nH]c2ccccc2n1C1CCN(CCCC(c2ccc(F)cc2)c2ccc(F)cc2)CC1 [Pimozide] + N=C(N)NC(=N)NCCc1ccccc1 [Phenformin] (partner 250 µM) | 0.575 | 0.57 | 0.617 | 0.629 | 0.569 | 0.655 | 0.628 | 0.804 | 0.671 | 0.655 | 0.543 | 0.555 | 0.536 | 0.639 | 0.721 | 0.771 | 0.668 | 0.663 | 0.64 | 0.574 | 0.685 | 0.375 | 0.552 | 0.516 | 0.154 | 0.171 | 0.152 | 0.156 | 0.173
